Laboratory results reported in patent publication US6329405A, “Cyclobutene derivatives, their preparation and their therapeutic uses” (Sankyo Company, Limited, priority 1999, dated 2001).
pIC50: −log10 of the molar value.

Columns and labels:
[1] = test system: ileal bile acid transporter; assay: Measurement of Bile Acid Transporter Inhibitory Activity in vivo ([3H]-taurocholic acid radioactivity in gall bladder bile); design: species or system Syrian golden hamsters; conditions: male hamsters; oral gavage 100 mg/10 ml/kg; [3H]-taurocholic acid 1.5 hours after; gall bladder bile at 24 hours
Protocol: Measurement of Bile Acid Transporter Inhibitory Activity in vivo
Male Syrian golden hamsters were used. The hamsters were reared in cages and fed food and water ad libitum. Test compound was orally administered by gavage (100 mg/10 ml/kg) as a suspension in 0.5% w/v carboxymethyl cellulose aqueous solution. Each hamster was given orally 1 μCi of [^3 H]-taurocholic acid ([…]) in physiological saline 1.5 hours after administration of the test compound. Twenty four hours after the oral administration of [^3 H]-taurocholic acid, each of the hamsters was sacrificed and the gall bladder bile was collected. The total radioactivity in the bladder bile was determined and compared to a vehicle-treated group.
Percentage inhibition (%) was determined by the following formula:
Inhibition percentage=100-(radioactivity in the treated
group)/(radioactivity in the control group)×100

[2] = target: T1, human ileal bile acid transporter (Homo sapiens, UniProt Q12908); assay: Measurement of Bile Acid Transporter Inhibitory Activity in vitro (uptake of [3H]-taurocholic acid into hIBAT-expressing Caco-2 cells); format: cell-based; conditions: 0.1 μCi [3H]-taurocholic acid, 37° C., 1 hour
T1 construct: expressed in transfected cells
T1 sequence (Q12908 1-348): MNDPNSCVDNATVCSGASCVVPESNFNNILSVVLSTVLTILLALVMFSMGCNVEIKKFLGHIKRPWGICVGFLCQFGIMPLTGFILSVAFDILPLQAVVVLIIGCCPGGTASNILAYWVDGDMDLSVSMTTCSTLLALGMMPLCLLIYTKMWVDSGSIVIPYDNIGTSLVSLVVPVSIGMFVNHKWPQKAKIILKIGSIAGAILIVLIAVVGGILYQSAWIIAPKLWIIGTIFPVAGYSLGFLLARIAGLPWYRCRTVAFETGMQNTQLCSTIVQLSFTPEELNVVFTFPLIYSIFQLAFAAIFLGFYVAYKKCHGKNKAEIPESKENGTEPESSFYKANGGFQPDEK
Source text: Measurement of Bile Acid Transporter Inhibitory Activity in vitro
1) Insertion of human ileal bile acid transporter cDNA into a mammalian expression vector
Human ileal bile acid transporter cDNA (GenBank accession number U10417, hereinafter abbreviated as "hIBAT") was amplified by PCR using a human kidney cDNA library ("Marathon-Ready"™, Clontech Laboratories) as a template. The sense oligonucleotide primer used was 5'-[…]-3' (corresponding to residues 512-533 of hIBAT cDNA: Sequence ID No. 1) while the antisense oligonucleotide primer used was 5'-[…]-3' (corresponding to residues 1649-1670 of hIBAT cDNA: Sequence ID NO. 2). […]
After incubation, the cells were washed 5 times with ice cooled PBS (phosphate buffered saline) containing 0.2% bovine serum albumin and 1 mM non-radioactive taurocholic acid. […] Radioactivity was measured using a "Top Count" (Packard) liquid scintillation counter.
By measuring the radioactivity of the control (no text compound) and comparing this with the radioactivity obtained from the cells exposed to test compound at various, predetermined concentrations, it was possible to determine a percentage inhibition (%) and to obtain an IC50 for the test compound against the ileal bile acid transporter activity.

Row | Structure (SMILES) | Percentage inhibition [1] [%] | pIC50 [2]
1 | C[C@H](NC(c1ccccc1)c1cccc(Nc2c(N)c(=O)c2=O)c1)c1ccccc1 (single isomer, unassigned) [2 (isomer B)] | 61.87 | 4.86
2 | COc1ccc(C(N[C@H](C)c2cc(F)cc(F)c2)c2cccc(Nc3c(O)c(=O)c3=O)c2)cc1 (single isomer, unassigned) [64(e)] | 80.0 | 
